Patent US20050197336A1 (Miikana Therapeutics Corporation, priority 2004, published 2005)

Key:
MCF7 cells = assay: Whole cell cytotoxicity assay: Sulforhodamine B; type: cell-based, human; settings: Homo sapiens; compound at 100 μM; MCF7 cell growth; 48 hours with drug; SRB staining
Method: The following procedure can be found on the Developmental Therapeutics Program NCI/NIH web site at http://dtp.nci.nih.gov/brancehes/btb/ivclsp.html.
1. Human tumor cell lines of HT29, A549 and MCF7 are grown in DMEM containing 10% fetal bovine serum and 2 mM L-glutamine. Cells are plated in a 96 well plate at a density of 5000 cells per well in 100 μL of growth medium and incubated at 37° C., 5% CO2, for 24 hours prior to the addition of experimental compounds.
2. Experimental drugs are solubilized in DMSO for a final concentration of 20 mM immediately prior to use. Drugs are further diluted in growth media for a total of nine drug concentrations and a growth control. At the 24 hour time point, one plate of cells is fixed in situ with TCA as a measurement of the cell population at time zero, or the time of drug addition.
3. The plates are further incubated with drug for an additional 48 hours.
4. The cells are fixed in situ by gently aspirating off the culture media and then adding 50 μL of ice cold 10% TCA per well and incubated at 4° C. for 60 minutes. The plates are washed with tap water five times and allowed to air dry for 5 minute.
5. 50 μL of a 0.4% (w/v) Sulforhodamine B solution in 1% (v/v) acetic acid is added per well and incubated for 30 minutes at room temperature.
6. Following staining, plates are washed five times with 1% acetic acid to remove any unbound dye and then allowed to air dry for 5 minutes.
7. Stain is solubilized with 100 μL of 10 mM Tris pH 10.5 per well and placed on an orbital rotator for 5 minutes.
8. Absorbance is read at 570 nm.

[1] = system: Histone deacetylase (HDAC), HeLa cell nuclear extract; assay: In vitro fluorescent histone deacetylase assay (Biomol kit, HeLa cell nuclear extract); type: biochemical; settings: compound at 100 μM; HeLa cell nuclear extract as HDAC source; substrate 50 μM; 10 min at room temperature
Method: Histone deacetylase (HDAC) activity assays were performed using the HDAC fluorescent activity assay/drug discovery kit (Biomol Research Laboratories, Plymouth Meeting, Pa.) essentially according to the manufacturer's instructions. The included HeLa cell nuclear extract, which contains a mosaic of HDAC enzymes and other nuclear factors, was used as the source of HDAC activity. The final substrate concentration in the assay mixture was 50 μM. The reaction was allowed to proceed for 10 min at room temperature before stopping the reaction. Test compounds were prepared as 20 mM stock solutions in DMSO (Molecular Biology grade, Sigma-Aldrich Co. St. Louis, Mo.) and stored at −70° C. Serial dilutions of test compounds were prepared in assay buffer immediately prior to testing. DMSO was determined in a separate trial to have no significant effect on the activity of this assay at concentrations up to 5%; the final DMSO concentration in the wells was no more than 2% and therefore DMSO effects were safely neglected. Assays were performed in white polystyrene 96-well half-area assay plates (Corning, Corning, N.Y.) and measured on a Wallace 1420 fluorescent plate reader (Wallac Oy, Turku, Finland) with an excitation wavelength of 355 nm, an emission wavelength of 460 nm, and a 1 sec signal averaging time.

Row | SMILES | inhibition at 100 µM (MCF7 cells) | % inhibition HDAC @ 100 μM [1]
1 | CN(C)c1cccc(-c2ccc(S(=O)(=O)N3CCN(c4ncc(C(=O)NO)s4)CC3)cc2)c1 [Example 71, 2-[4-(3′-(dimethylamino)-1,1′-biphenylsulfonyl)piperazin-1-yl]-1,3-thiazole-5-carboxylic acid hydroxyamide] | 97.2% | –
2 | Cn1cnc(S(=O)(=O)N2CCN(c3ncc(C(=O)NO)s3)CC2)c1 [Example 102] | 84% | 99%
3 | O=C(NO)c1cnc(N2CCN(S(=O)(=O)c3ccc(-c4cccc(CN5CCCC5)c4)s3)CC2)s1 [Example 90, 2-(4-{5-[3-(pyrrolidin-1-ylmethyl)phenyl]thiophene-2-sulfonyl}piperazin-1-yl)-1,3-thiazole-5-carboxylic acid hydroxyamide] | 98% | 99%
4 | CC(C)N(C)Cc1cccc(-c2ccc(S(=O)(=O)N3CCN(c4ncc(C(=O)NO)s4)CC3)cc2)c1 [Example 87, 2-{4-[(3′-[isopropyl(methyl)amino]methyl]-1,1′-biphenylsulfonyl]-piperazin-1-yl}-1,3-thiazole-5-carboxylic acid hydroxyamide] | 97.7% | 99%
5 | O=C(NO)c1cnc(N2CCN(S(=O)(=O)c3ccc(OC(F)(F)F)cc3)CC2)s1 [Example 3, 2-[4-(4-trifluoromethoxy-benzenesulfonyl)-piperazin-1-yl]-thiazole-5-carboxylic acid hydroxyamide] | 95.3% | 93%
6 | CCCc1ccc(S(=O)(=O)N2CCN(c3ncc(C(=O)NO)s3)CC2)cc1 [Example 23, 2-[4-(4-n-propylphenylsulfonyl)-piperazin-1-yl]-thiazole-5-carboxylic acid hydroxyamide] | 96.7% | 99%
7 | O=C(NO)c1cnc(N2CCN(S(=O)(=O)c3ccc(-c4cccs4)cc3)CC2)s1 [Example 65, 2-{4-[(4-thien-2-ylphenyl)sulfonyl]piperazin-1-yl}-1,3-thiazole-5-carboxylic acid hydroxamide] | 95% | 99%
8 | COc1ccc(-c2ccc(S(=O)(=O)N3CCN(c4ncc(C(=O)NO)s4)CC3)cc2)cc1 [Example 63] | 93.3% | 98%
9 | O=C(NO)c1cnc(N2CCN(S(=O)(=O)c3ccc(-c4cccc(CN5CCCCC5)c4)cc3)CC2)s1 [Example 73] | 96.7% | 100%
10 | CN(C)Cc1sccc1-c1ccc(S(=O)(=O)N2CCN(c3ncc(C(=O)NO)s3)CC2)cc1 [Example 81] | 97.1% | 100%
11 | CN(C)Cc1ccc(S(=O)(=O)N2CCN(c3ncc(C(=O)NO)s3)CC2)cc1 [Example 95] | 96.8% | 98%
12 | O=C(NO)c1cnc(N2CCN(S(=O)(=O)c3ccc(Cl)cc3)CC2)s1 [Example 54, 2-[4-(chlorophenalsulfonyl)-piperazin-1-yl]-thiazole-5-carboxylic acid hydroxyamide] | 97.1% | –
13 | O=C(NO)c1cnc(N2CCN(S(=O)(=O)Cc3ccccc3)CC2)s1 [Example 26, 2-[4-(benzylsulfonyl)piperazin-1-yl]-thiazole-5-carboxylic acid hydroxyamide] | 90% | 98%
14 | Cc1ccc(S(=O)(=O)N2CCN(c3ncc(C(=O)NO)s3)CC2)cc1C [Example 50, 2-[4-(3,4-dimethylphenylsulfonyl)-piperazin-1-yl]-thiazole-5-carboxylic acid hydroxyamide] | 98.3% | 99%
15 | O=C(NO)c1cnc(N2CCN(S(=O)(=O)c3ccc(-c4sccc4CN4CCCC4)cc3)CC2)s1 [Example 89] | 98.3% | 99%
16 | O=C(NO)c1cnc(N2CCN(S(=O)(=O)c3ccccc3F)CC2)s1 [Example 34, 2-[4-(2-fluorophenylsulfonyl)-piperazin-1-yl]-thiazole-5-carboxylic acid hydroxyamide] | 97.7% | 92%
17 | O=C(NO)c1cnc(N2CCN(S(=O)(=O)c3ccc([N+](=O)[O-])cc3)CC2)s1 [Example 6, 2-[4-(4-nitro-benzenesulfonyl)-piperazin-1-yl]-thiazole-5-carboxylic acid hydroxyamide] | 95.1% | 97%
18 | O=C(NO)c1cnc(N2CCN(S(=O)(=O)c3ccc(Cl)c(Cl)c3)CC2)s1 [Example 15, 2-[4-(3,4-dichlorolphenylsulfonyl)-piperazin-1-yl]-thiazole-5-carboxylic acid hydroxyamide] | 88.5% | –
19 | O=C(NO)c1cnc(N2CCN(S(=O)(=O)c3ccc(-c4ccc[nH]4)cc3)CC2)s1 [Example 67, 2-(4-{[4-(1H-pyrrol-2-yl)phenyl]sulfonyl}piperazin-1-yl)-1,3-thiazole-5-carboxylic acid hydroxyamide] | 98% | –
20 | O=C(NO)c1cnc(N2CCN(S(=O)(=O)c3ccccc3Cl)CC2)s1 [Example 17, 2-[4-(2-chlorophenalsulfonyl)-piperazin-1-yl]-thiazole-5-carboxylic acid hydroxyamide] | 97.8% | –
21 | CN(C)CCN(C)Cc1cccc(-c2ccc(S(=O)(=O)N3CCN(c4ncc(C(=O)NO)s4)CC3)cc2)c1 [Example 85, 2-{4-[3′-{[(2-(dimethylamino)ethyl)(methyl)amino]methyl}-1,1′-biphenylsulfonyl]piperazin-1-yl}-1,3-thiazole-5-carboxylic acid hydroxyamide] | 97.5% | –
22 | O=C(NO)c1cnc(N2CCN(S(=O)(=O)c3ccc4c(c3)OCCO4)CC2)s1 [Example 44, 2-[4-(3,4-benzodioxansulfonyl)-piperazin-1-yl]-thiazole-5-carboxylic acid hydroxyamide] | 91.7% | –
23 | CC(=O)c1ccc(S(=O)(=O)N2CCN(c3ncc(C(=O)NO)s3)CC2)cc1 [Example 7, 2-[4-(4-acetyl-benzenesulfonyl)-piperazin-1-yl]-thiazole-5-carboxylic acid hydroxyamide] | 83.3% | –
24 | O=C(NO)c1cnc(N2CCN(S(=O)(=O)c3ccc4c(c3)CCO4)CC2)s1 [Example 42, 2-[4-(2,3-dihydrobenzofuransulfonyl)-piperazin-1-yl]-thiazole-5-carboxylic acid hydroxyamide] | 90% | –
25 | O=C(NO)c1cnc(N2CCN(S(=O)(=O)c3cc(F)cc(F)c3)CC2)s1 [Example 52, 2-[4-(3,5-difluorophenylsulfonyl)-piperazin-1-yl]-thiazole-5-carboxylic acid hydroxyamide] | 97.3% | –
26 | O=C(NO)c1cnc(N2CCN(S(=O)(=O)c3ccc(-c4ccc(C(=O)N5CCOCC5)cc4)cc3)CC2)s1 [Example 69, 2-[4-(4′-(morpholin-4-ylcarbonyl)-1,1′-biphenylsulfonyl)piperazin-1-yl]-1,3-thiazole-5-carboxylic acid hydroxyamide] | 87.7% | –
27 | CCc1ccc(S(=O)(=O)N2CCN(c3ncc(C(=O)NO)s3)CC2)cc1 [Example 100, 2-[4-(4-Ethylbenzenesulfonyl)piperazin-1-yl]-thiazole-5-carboxylic acid hydroxyamide] | 96.8% | –
28 | O=C(NO)c1cnc(N2CCN(S(=O)(=O)c3ccc(C(F)(F)F)cc3)CC2)s1 [Example 5, 2-[4-(4-trifluoromethyl-benzenesulfonyl)-piperazin-1-yl]-thiazole-5-carboxylic acid hydroxyamide] | 97.9% | –
29 | O=C(NO)c1cnc(N2CCN(S(=O)(=O)c3ccc(-n4cccn4)cc3)CC2)s1 [Example 101, 2-[4-(4-pyrazolylbenzenesulfonyl)-piperazin-1-yl]-thiazole-5-carboxylic acid hydroxyamide] | 98.1% | –
30 | CS(=O)(=O)Nc1ccc(-c2ccc(S(=O)(=O)N3CCN(c4ncc(C(=O)NO)s4)CC3)cc2)cc1 [Example 70, 2-[4-(4′-methylsulfonylamino-1,1′-biphenylsulfonyl)piperazin-1-yl]-1,3-thiazole-5-carboxylic acid hydroxyamide] | 83.6% | –
